According to patent publication US11419870B2, “Intermittent dosing of MDM2 inhibitor” (Novartis AG, priority 2014, dated 2022):
“And” between values parts separate entries of the source, which are not always exact repeats. Equal values may be shown once.

Columns and labels:
BBC3 (puma) = assay: Pharmacodynamic qRT-PCR: Puma mRNA induction in SJSA-1 tumor; format: in vivo, Human
From the text: (§1) At the times indicated, animals were anaesthetized by exposure to 2-3% v/v isofluorane in medical oxygen: • Either the animal was killed without recovering from anesthetic after blood sampling. Blood was collected into commercially prepared EDTA coated tubes (Milian, cat #TOM-14C) in order to extract plasma. The tissues were excised, weighed and rapidly frozen in liquid nitrogen. • Or a tumor biopsy was collected by using a biopsy gun and flushing the needle with RLT buffer in Barney rubble tubes (Covaris, cat #520048). In addition, 20 μl of blood may have been collected from the tail vein and diluted in 20 μl of water. After recovery of anesthesia, animals were transferred in their respective cages.
(§2) Frozen tissues were cryogenic dry pulverized and biopsies were sonicated using the CryoPrep™ system (model CP-02) from Covaris. More specifically, frozen tissues were transferred to disposable tubes called TissueTubes™, placed in the CryoPrep™ system and then pulverized using the appropriate impact setting. The resulting powder was collected with a spatula and weighed for further processing (mRNA purification or quantification of compound in tissues). The biopsies were flushed in a Barney rubble glass tubes with 350 μl of RLT buffer and placed in the Covaris for sonication (1 min per biopsy). The resulting lysate was transferred into a QIAshredder (79654, Qiagen) column for RNA extraction.
(§3) Total RNA was purified from cell pellets using the QIAshredder (79654, Qiagen) and RNeasy Mini Kit (74106, Qiagen) according to the manufacturer's instructions, with the exception that no DNA digestion was performed. Total RNA was eluted with 50 μL of RNase-free water. Total RNA was quantitated using the spectrophotometer ND-1000 Nanodrop®. The qRT-PCR (Quantitative Reverse Transcriptase Polymerase Chain Reaction) was set up in triplicate per sample using the One-Step RT qPCR Master Mix Plus (RT-QPRT-032X, Eurogentec), with either control primers and primers for the target, namely TaqMan Gene Expression assays (20× probe dye FAM™ (or VIC)-TAMRA (or MGB); Applied Biosystems) listed in Table 1.

[1] = Pharmacokinetics of Compound A in SJSA-1 tumor-bearing rat (plasma, tumor, tissues; UPLC/MS-MS); format: in vivo, nude rat
Protocol: Subcutaneous tumors were induced by concentrating 1.0×10^7 SJSA-1 cells in 50% Matrigel® and injecting in the right flank of Harlan nude rats. Efficacy experiment could start 14 days post cell injection. […] The animals were treated either at a high dose (20 mg/kg i.v. or 27 mg/kg p.o.) once every 3 weeks (q3w) or at a high dose (15 mg/kg p.o.) followed 24 h later by a daily low dose treatment (3 mg/kg p.o., 2 weeks on/2 weeks off).
as §1
Tissues were homogenized in an equal volume of HPLC-Water (Water for chromatography, Merck) using the Fast Prep®-24 system (M.P. Biomedicals, Irvine, Calif., USA). Following addition of 25 μl of internal standard mixture (1 μg/ml) to analytical aliquots (25 μl) of plasma or tissues homogenate the proteins were precipitated by the addition of 200 μl acetonitrile. The supernatant were transferred in a fresh vial. After evaporation to dryness the samples were re-dissolved in 60 μl acetonitrile/water (1/1 v/v). An aliquot (5 μl) of this solution was separated on a ACQUITY UPLC BEH C18 column (Waters™ 1.7 μm particle size, 2.1×50 mm) with a mobile phase consisting of a mixture of 0.1% formic acid in water (solvent A) and 0.1% formic acid in acetonitrile (solvent B). Gradient programming was used with a flow rate of 600 μl/min. After equilibration with 95% solvent A, 5 μl of sample was injected. Following a latency period of 0.25 min, the sample was eluted with a linear gradient of 5-100% solvent B over a period of 0.65 minutes followed by a 0.35 minutes hold. The column was prepared for the next sample by re-equilibrating over 0.25 minutes to the starting conditions. The column eluent was directly introduced into the ion source of the triple quadrupole mass spectrometer TQD™ (Waters Corporation, Milford, Mass., USA) controlled by Masslynx™ 4.1 software. Electrospray positive ionization (ESI+) multiple reaction monitoring was used for the MS/MS detection of the analyte. […] The limit of quantification (LOQ) for the compound was set to 0.7 ng/mL (CV and overall bias less than 30%). Regression analysis and further calculations were performed using QuanLynx™ 4.1 (Micromass) and Excel™ 2007 (Microsoft). Concentrations of unknown samples were back-calculated based on the peak area ratios of analyte/IS from a calibration curve constructed using calibration samples spiked in blank plasma or tissue obtained from animals treated with vehicle.
Areas under the plasma concentration versus time curves (AUC) were calculated from the mean values with linear trapezoidal rule, and further relevant parameters by using a non-compartmental model for extravascular dosing (WinNonlin® Professional Version 5.2, Pharsight corp., CA, US).

Cdkn1 a (p21) = assay: Pharmacodynamic qRT-PCR: p21 mRNA induction in SJSA-1 tumor; format: in vivo, nude rat
From the text: as §1, §2, §3

SJSA-1 tumor = assay: Efficacy on SJSA-1 tumor-bearing nude rat (tumor volume); format: in vivo; settings: for tumor regression in average: one week post treatment
[2] = after first p.o. treatment, 20 and 27 mg/kg
[3] = after first single i.v. treatment 20 mg/kg
[4] = single i.v. 20 mg/kg, 24 h post treatment, tumor
[5] = single oral 27 mg/kg, 48 h post treatment, tumor
[6] = i.v. q3w 13.7 mg/kg, week 1 post treatment
[7] = i.v. q3w 13.7 mg/kg, week 2 post treatment
[8] = i.v. q3w 18.2 mg/kg, week 1 post treatment
[9] = i.v. q3w 18.2 mg/kg, week 2 post treatment
[10] = i.v. q3w 18.2 mg/kg, week 3 post treatment
[11] = i.v. q3w 18.2 mg/kg, week 5 post treatment
[12] = i.v. q3w 20 mg/kg, three weeks post first treatment

COc1ncc(-c2nc3c(n2C(C)C)[C@H](c2ccc(Cl)cc2)N(c2cc(Cl)cn(C)c2=O)C3=O)c(OC)n1 [Compound A, (S)-5-(5-Chloro-1-methyl-2-oxo-1,2-dihydro-pyridin-3-yl)-6-(4-chloro-phenyl)-2-(2,4-dimethoxy-pyrimidin-5-yl)-1-isopropyl-5,6-dihydro-1H-pyrrolo[3,4-d]imidazol-4-one]
Puma mRNA expression in tumor (BBC3 (puma); [2]): dose-dependently increased
Puma mRNA expression increase in tumor (BBC3 (puma); [3]): more than 50 fold
Puma mRNA expression induction (BBC3 (puma); below the high dose): 5-6 fold
Puma mRNA induction Emax (BBC3 (puma); higher single dose, intravenously or per os): ≥ 70 fold induction
Puma mRNA expression max (BBC3 (puma); [4]): 180 fold
Puma mRNA induction Emax (BBC3 (puma); [5]): 162 fold
Cmax and AUC0-24 h in blood ([1]; after first p.o. treatment, 20 and 27 mg/kg q3w): dose-dependently increased
exposure in heart, jejunum, spleen, liver and bone marrow compared to plasma ([1]; i.v. 20 mg/kg on day 59 post first treatment): twice as high as in plasma
Tmax ([1]; nude (Harlan), rat, iv, single i.v. injection 20 mg/kg, liver): 5 min
Tmax ([1]; nude (Harlan), rat, iv, single i.v. injection 20 mg/kg, plasma): 5 min
Tmax ([1]; nude (Harlan), rat, iv, single i.v. injection 20 mg/kg, tumor): 60 min
Tmax ([1]; nude (Harlan), rat, single oral 27 mg/kg, all matrices (plasma, tumor and liver)): 180 min
AUC(0-t) ([1]; nude (Harlan), rat, single oral 27 mg/kg, plasma, read-out: AUC0-144 h): 112 µM·h
exposure in tumor compared to plasma ([1]; single i.v. injection 20 mg/kg): two times higher
AUC0-144 h dn ([1]; single i.v. injection 20 mg/kg, tumor): 16.5 nmol·h/g
AUC0-144 h ([1]; single oral 27 mg/kg, tumor): 277.7 nmol·h/g
p21 mRNA expression in tumor (Cdkn1 a (p21); [2]): dose-dependently increased
p21 mRNA expression increase in tumor (Cdkn1 a (p21); [3]): more than 50 fold
p21 mRNA expression max (Cdkn1 a (p21); [4]): 200 fold
p21 mRNA induction Emax (Cdkn1 a (p21); [5]): 180 fold
tumor cell density (SJSA-1 tumor; higher single dose, 48 and 72 h post-treatment): dramatic decrease
tumor growth (SJSA-1 tumor; i.v. 13.7 mg/kg, after two weeks): re-growing
tumor regression in average (SJSA-1 tumor; i.v. 13.7 mg/kg): 66%
tumor regression in average (SJSA-1 tumor; i.v. 18.2 mg/kg): 88%
tumor regression (SJSA-1 tumor; i.v. 18.2 mg/kg, three weeks post treatment): 36%
CR (SJSA-1 tumor; [6]): 1/6
ΔTvol (%) (SJSA-1 tumor; [6]): −66 ± 9%
CR (SJSA-1 tumor; [7]): 0/6
ΔTvol (%) (SJSA-1 tumor; [7]): 4 ± 37%
CR (SJSA-1 tumor; [8]): 0/5
ΔTvol (%) (SJSA-1 tumor; [8]): −80 ± 2%
CR (SJSA-1 tumor; [9]): 2/5
ΔTvol (%) (SJSA-1 tumor; [9]): −79 ± 11%
CR (SJSA-1 tumor; [10]): 2 and 2/5
ΔTvol (%) (SJSA-1 tumor; [10]): −36 ± 37%
CR (SJSA-1 tumor; [11]): 2/5
ΔTvol (%) (SJSA-1 tumor; [11]): 22 ± 63%
CR (SJSA-1 tumor; i.v. q3w 18.2 mg/kg, week 6 post treatment): 2/5
ΔTvol (%) (SJSA-1 tumor; i.v. q3w 18.2 mg/kg, week 6 post treatment (after the second treatment)): 118% and 118 ± 104%
rats with complete response (100% regression) (SJSA-1 tumor; [12]): 3
rats with progressive disease (SJSA-1 tumor; [12]): 1
rats with stable disease (SJSA-1 tumor; [12]): 1
effect of combining two dosing schedules (SJSA-1 tumor; intermittent (15 mg/kg once) plus daily dosing (1.5 mg/kg)): highly synergistic effect
tumor regression (SJSA-1 tumor; p.o. q3w 20 mg/kg, three weeks post first treatment): 27%
SJSA-1 tumor regression (SJSA-1 tumor; p.o. q3w 27 mg/kg, after one cycle (three weeks post first treatment)): 88%
response of regrown tumors to retreatment (SJSA-1 tumor; retreated i.v. at 15 mg/kg): still sensitive
tumors with incomplete response and regrowth (SJSA-1 tumor; single i.v. 20 mg/kg): 2 of 11
tumor regression (SJSA-1 tumor; single i.v. 20 mg/kg, 14 days post treatment): 92%
complete SJSA-1 tumor response (100% regression), share of treated rat (SJSA-1 tumor; single i.v. 20 mg/kg, for 42 days): 82%
